We go through 23 compounds from ChEMBL document CHEMBL4680171, “Oxadiazolylthiazoles as novel and selective antifungal agents” (Eur J Med Chem, 2020).

Assay type in all cases: functional
For assay [1], the system named is Candida albicans. The experiment in a line: Antifungal activity against Candida albicans SS5314 assessed as reduction in fungal growth by CLSI based broth microdilution method. (Dilution methods test growth across graded concentrations, often in twofold steps.)
The subject of assay [2] is Staphylococcus aureus. Briefly: Antibacterial activity against methicillin resistant Staphylococcus aureus subsp. aureus USA300 assessed as reduction in bacterial growth by CLSI based broth microdilution method.
For assay [3], the system named is Escherichia coli. Briefly: Antibacterial activity against Escherichia coli BW25113 assessed as reduction in bacterial growth by CLSI based broth microdilution method.
For assay [4], the system named is Clostridioides difficile. The experiment in a line: Antibacterial activity against Clostridium difficile BAA1870 assessed as reduction in bacterial growth by CLSI based broth microdilution method.
The subject of assay [5] is Escherichia coli. The experiment in a line: Antibacterial activity against Escherichia coli JW55031 harboring tolC mutation assessed as reduction in bacterial growth by CLSI based broth microdilution method.
The test system of assay [6] is Aspergillus fumigatus. Briefly: Antifungal activity against Aspergillus fumigatus NR 35304 assessed as reduction in fungal growth incubated for 24 hrs by CLSI based broth microdilution method.
Assay [7] concerns Aspergillus fumigatus. Briefly: Antifungal activity against Aspergillus fumigatus NR 35303 assessed as reduction in fungal growth incubated for 24 hrs by CLSI based broth microdilution method.

As usually defined, the MIC is the lowest concentration found to suppress growth.

≈ marks a conversion by molar mass, not a printed value. A value given as a limit tells only on which side of the number the result lay.

For the compound `Cc1nc(-c2ccc(C(C)(C)C)cc2)sc1-c1nnc(NCCO)o1`, the MIC in assay [1] is more than 64 µg/mL; in assay [2], more than 64 µg/mL; in assay [3] it was more than 64 µg/mL; in assay [4], 32 µg/mL (≈ 89.3 µM); in assay [5], more than 64 µg/mL.
Consider `Cc1nc(-c2ccc(C(C)(C)C)cc2)sc1-c1nnc(N2CC[C@@H](N(C)C)C2)o1`, for which the MIC in assay [1], in assay [2], in assay [3], in assay [4] and in assay [5] was more than 64 µg/mL in each case.
Regarding `Cc1nc(-c2ccc(C(C)(C)C)cc2)sc1-c1nnc(NCCN(C)C)o1`, the MIC in assay [1] was 32 µg/mL (≈ 83 µM); in assay [2] it was 64 µg/mL (≈ 166 µM); in assay [3], more than 64 µg/mL; in assay [4], 16 µg/mL (≈ 41.5 µM); in assay [5] it was 32 µg/mL (≈ 83 µM).
As to `Cc1nc(-c2ccc(C(C)(C)C)cc2)sc1-c1nnc(N2CC[C@H](N(C)C)C2)o1`, the MIC is more than 64 µg/mL in assay [1]; more than 64 µg/mL in assay [2]; more than 64 µg/mL in assay [3]; 32 µg/mL (≈ 77.8 µM) in assay [4]; more than 64 µg/mL in assay [5].
As for `Cc1nc(-c2ccc(C(C)(C)C)cc2)sc1-c1nnc(NCC(=N)N)o1`, the MIC in assay [1] was more than 64 µg/mL; in assay [2], more than 64 µg/mL; in assay [3], more than 64 µg/mL; in assay [4], 64 µg/mL (≈ 173 µM); in assay [5], more than 64 µg/mL.
Turning to `Cc1nc(-c2ccc(C(C)(C)C)cc2)sc1-c1nnc(NC(CO)CO)o1`, the MIC in assay [1], in assay [2], in assay [3], in assay [4] and in assay [5] was more than 64 µg/mL in each case.
`Cc1nc(-c2ccc(C(C)(C)C)cc2)sc1-c1nnc(NC2CCNC2)o1` (stereo not drawn): the MIC in assay [1] is more than 64 µg/mL; in assay [2], 32 µg/mL (≈ 83.4 µM); in assay [3], more than 64 µg/mL; in assay [4], 16 µg/mL (≈ 41.7 µM); in assay [5], 32 µg/mL (≈ 83.4 µM).
As for `Cc1nc(-c2ccc(C(C)(C)C)cc2)sc1-c1nnc(NC[C@H](O)CO)o1`, the MIC in assay [1] was more than 64 µg/mL; in assay [2], more than 64 µg/mL; in assay [3] it was more than 64 µg/mL; in assay [4] it was 16 µg/mL (≈ 41.2 µM); in assay [5] it was 32 µg/mL (≈ 82.4 µM).
On to `Cc1nc(-c2ccc(C(C)(C)C)cc2)sc1-c1nnc(N2CCC[C@H]2CO)o1`, for which the MIC in assay [1] is more than 64 µg/mL; in assay [2], more than 64 µg/mL; in assay [3], more than 64 µg/mL; in assay [4], 16 µg/mL (≈ 40.1 µM); in assay [5], more than 64 µg/mL.
Regarding `Cc1nc(-c2ccc(C(C)(C)C)cc2)sc1-c1nnc(NCCN)o1`, the MIC in assay [1] is 32 µg/mL (≈ 89.5 µM); in assay [2], 8 µg/mL (≈ 22.4 µM); in assay [3], more than 64 µg/mL; in assay [4], more than 64 µg/mL; in assay [5] it was more than 64 µg/mL.
As for `Cc1nc(-c2ccc(C(C)(C)C)cc2)sc1-c1nnc(N[C@H]2CC[C@H](N)CC2)o1`, the MIC was 8 µg/mL (≈ 19.4 µM) in assay [1]; 32 µg/mL (≈ 77.8 µM) in assay [2]; more than 64 µg/mL in assay [3]; 8 µg/mL (≈ 19.4 µM) in assay [4]; 32 µg/mL (≈ 77.8 µM) in assay [5].
In the case of `Cc1nc(-c2ccc(C(C)(C)C)cc2)sc1-c1nnc(NCCCO)o1`, the MIC in assay [1] was more than 64 µg/mL; in assay [2] it was more than 64 µg/mL; in assay [3] it was more than 64 µg/mL; in assay [4], 32 µg/mL (≈ 85.9 µM); in assay [5], more than 64 µg/mL.
As for `Cc1nc(-c2ccc(C(C)(C)C)cc2)sc1-c1nnc(NCCCN)o1`, the minimum inhibitory concentration (MIC) was 16 µg/mL (≈ 43.1 µM) in assay [1]; more than 64 µg/mL in assay [2]; more than 64 µg/mL in assay [3]; 64 µg/mL (≈ 172 µM) in assay [4]; more than 64 µg/mL in assay [5].
Turning to `Cc1nc(-c2ccc(C(C)(C)C)cc2)sc1-c1nnc(N2CCC[C@@H]2C(N)=O)o1`, the MIC in assay [1] is more than 64 µg/mL; in assay [2], more than 64 µg/mL; in assay [3] it was more than 64 µg/mL; in assay [4] it was 32 µg/mL (≈ 77.8 µM); in assay [5], more than 64 µg/mL.
For the compound `Cc1nc(-c2ccc(C(C)(C)C)cc2)sc1-c1nnc(N2CCC[C@H]2C(N)=O)o1`, the MIC in assay [1] was more than 64 µg/mL; in assay [2], more than 64 µg/mL; in assay [3], more than 64 µg/mL; in assay [4], 32 µg/mL (≈ 77.8 µM); in assay [5], 64 µg/mL (≈ 156 µM).
Regarding `Cc1nc(-c2ccc(C(C)(C)C)cc2)sc1-c1nnc(NC[C@@H](O)CO)o1`, the MIC is more than 64 µg/mL in assay [1]; more than 64 µg/mL in assay [2]; more than 64 µg/mL in assay [3]; 32 µg/mL (≈ 82.4 µM) in assay [4]; more than 64 µg/mL in assay [5].
As for `Cc1nc(-c2ccc(C(C)(C)C)cc2)sc1-c1nnc(NCC(O)CO)o1` (stereo not drawn), the MIC in assay [1] was more than 64 µg/mL; in assay [2], more than 64 µg/mL; in assay [3], more than 64 µg/mL; in assay [4], 32 µg/mL (≈ 82.4 µM); in assay [5], more than 64 µg/mL.
Consider `Cc1nc(-c2ccc(C(C)(C)C)cc2)sc1-c1nnc(NCC2CCCCN2)o1` (stereo not drawn), for which the MIC was more than 64 µg/mL in assay [1]; 32 µg/mL (≈ 77.8 µM) in assay [2]; more than 64 µg/mL in assay [3]; 16 µg/mL (≈ 38.9 µM) in assay [4]; 16 µg/mL (≈ 38.9 µM) in assay [5].
In the case of `Cc1nc(-c2ccc(C(C)(C)C)cc2)sc1-c1nnc(N2CCC[C@@H]2CO)o1`, the MIC in assay [1] was more than 64 µg/mL; in assay [2], more than 64 µg/mL; in assay [3], more than 64 µg/mL; in assay [4], 32 µg/mL (≈ 80.3 µM); in assay [5], more than 64 µg/mL.
Regarding `Cc1nc(-c2ccc(C(C)(C)C)cc2)sc1-c1nnc(N[C@@H]2CCCC[C@H]2N)o1` (relative stereo), the MIC was 64 µg/mL (≈ 156 µM) in assay [1]; 64 µg/mL (≈ 156 µM) in assay [2]; more than 64 µg/mL in assay [3]; 16 µg/mL (≈ 38.9 µM) in assay [4]; more than 64 µg/mL in assay [5].
`CCC(C)n1ncn(-c2ccc(N3CCN(c4ccc(OCC5COC(Cn6cncn6)(c6ccc(Cl)cc6Cl)O5)cc4)CC3)cc2)c1=O` (stereo not drawn) [ITRACONAZOLE]: the MIC in assay [6] and in assay [7] was 1 µg/mL (≈ 1.42 µM) each time.
For `CC(=O)NC[C@H]1CN(c2ccc(N3CCOCC3)c(F)c2)C(=O)O1` [LINEZOLID], the MIC in assay [2] is 1 µg/mL (≈ 2.96 µM); in assay [3], more than 64 µg/mL; in assay [4], 1 µg/mL (≈ 2.96 µM); in assay [5], 8 µg/mL (≈ 23.7 µM).
Turning to GENTAMICIN, the minimal inhibitory concentration (MIC) in assay [3] and in assay [5] was less than 0.5 µg/mL throughout.
